Our source for the IC50 values is patent US20250388568A1, “NLRP3 INHIBITORS” (Kodiak Sciences Inc., priority 2022, published 2025).

Like-named read-outs stand apart in the source and are kept apart here.

Assay [1] concerns IL-1β release in U937 cells after NLRP3 activation. Description: IC50 determination of IL-1β release inhibition in U937 cells. In kind it is cell-based. The conditions noted are these: Homo sapiens, read-out: IL-1β IC50 (nM) U937 cells. The procedure:
Example 79: IC50 Determination of IL-1β Release Inhibition in U937 Cells The compounds of the present disclosure were tested for their ability to inhibit the IL-1β release in the U937 cells after NLRP3 activation. U937 cells (U-97 CRL 1593.2) were thawed following ATCC's initial culture procedure. […] The growth medium was composed of RPMI1640 medium (Quality Biological 112-040-101), 10% serum (Corning 35-076-CV), Pen/Strep (GIBCO 15140-122), 10 mM Hepes (Quality Biological 118-089-721), 2 mM Glutamax (GIBCO 35050-061), and 100 μg/mL normocin (Invivogen ant-nr)-Differentiating media was prepared by adding Phorbol 12-myristate 13-acetate (PMA) (AdipoGen AG-CN2-0010-M005) to growth medium. A cell suspension was prepared with differentiating media at 500k cells/ml. With an electronic pipet, 200 ul of cell suspension was added to each well (96w white plate Corning 3903) leaving columns 1 and 2 empty. Plates were left in the biosafety cabinet for 15 min and then placed in incubator for 90 hours. Priming media was prepared with assay medium consisting of RPMI 1640 medium, 10 mM Hepes, 2 mM Glutamax and Pen/Strep plus 1 μg/mL LPS (Invivogen tlrl-3pelps). Differentiating media was manually removed and 80 ul of priming media was added to each well with an electronic pipet. The plates were placed in the incubator for 5 hours. […] DMSO). An hour prior to the end of LPS incubation, a separate 96 deep well plate, Plate B, was prepared with 400 μL of assay media per well, then […] of the stock DMSO solution from Plate A was added to each corresponding well. Plate B was covered to avoid media evaporation. In a 50 mL tube, a solution of nigericin in assay media at 50 uM/mL concentration was prepared. To a new 96 deep well plate, Plate C, 200 μL of this nigericin containing media was dispensed to each well and 1 μL of the test compounds from Plate B to each corresponding well was added. Plate C was covered to avoid media evaporation. After 5 hours of priming, all the media from the LPS treated U937 cells was removed manually. To this plate of primed cells, 80 μL/well test compounds from Plate B (assay media+compound) was added in duplicate columns (5 compounds tested per plate). The plate was placed in an incubator for 30 min. […] The plate was placed back in the incubator for 1 hour. At the end of 1 hour, the supernatant from this test plate was transferred to a new 96 well V bottom polypropylene plate which was frozen immediately at -80° C. The plate was transferred to -20° C. the next day and awaited further determination of cytokine IL-Ip level. The release of IL-1β into the cell media was determined by MSD® Multi-Spot Assay System (V-Plex, IL-1B kit, […]-4). Following the manufacture's protocol and using the Alternate Protocol 3, Dilute-In-Plate protocol specifically, the level of IL-IP in the above collected supernatant plate was measured as electrochemiluminescent signals. Using MSD DISCOVERY WORKBENCH® analysis software, the signals were converted to the concentration of IL-1β in each well. The IC50 values of the compounds were calculated using the Graph Pad Prism software based on the IL-1β concentration determined. The detection range of IL-1β using MSD kit was approximately […] (based on various lots of standards purchased from MSD).

Assay [2] concerns IL-1β release in THP-1-ASC-GFP cells after NLRP3 activation. As to the kind of experiment: IC50 determination of IL-1β release inhibition in THP-1-ASC-GFP cells. Type of assay: cell-based. The following applies: THP1-ASC-GFP, read-out: IL-1β IC50 (nM) THP1 cells. How it is done:
Example 78: IC50 Determination of IL-1β Release Inhibition in THP-1-ASC-GFP Cells The compounds were tested for their ability to inhibit the IL-1β release in the THP-1-ASC-GFP cells after NLRP3 activation. THP1-ASC-GFP cells (Invivogen […] thawed following Invivogen's initial culture procedure. […] The growth medium was composed of RPM1640 medium (Gibco 32404-014), 10% heat inactivated (HI) serum (Gibco A3840102), Pen/Strep (Quality Biologics 118-089-721), 10 mM Hepes (Quality Biologics 118-089-721), 2 mM Glutamax (GIBCO 35050-061), 100 μg/mL normocin (Invivogen ant-nr), 100 μg/mL Zeocin (Invivogen ant-zn). The growth medium was freshly prepared once a week and sterile filtered. Assay medium consisted of RPMI 1640 medium, 10 mM Hepes, 2 mM Glutamax and Pen/Strep. To the assay medium, 1 μg/mL LPS (Invivogen tlrl-3pelps) was added. A cell suspension was prepared with assay medium and LPS at 1.25M cells per mL. With an electronic pipet, 80 μl of cell suspension was added to U bottom 96 well polystyrene plates (VWR 10062-902) leaving columns 1 and 2 empty. The plates were placed in the incubator for 4 hours. […] DMSO). An hour prior to the end of LPS incubation, a separate 96 deep well plate, Plate B, was prepared with 400 μL of assay media per well, then 2 μL of the stock DMSO solution from Plate A was added to each corresponding well. Plate B was covered to avoid media evaporation. In a 50 mL tube, a solution of nigericin in assay media at […] concentration was prepared. To a new 96 deep well plate, Plate C, 200 μL of this nigericin containing media was dispensed to each well and […] of the test compounds from Plate A to each corresponding well was added. Plate C was covered to avoid media evaporation. After 4 hours of priming, all the media from the LPS treated THP-1 cells in the initial U bottom plate was removed manually. To this plate of primed cells, 80 μL/well test compounds from Plate B was added in duplicate columns (5 compounds tested per plate). The plate was placed in an incubator for 30 min. […] The plate was placed back in the incubator for 1 hour. At the end of 1 hour, the supernatant from this test plate was transferred to a new 96 well V bottom polypropylene plate which was frozen immediately at -80° C. The plate was transferred to -20° C. the next day and awaiting further determination of cytokine IL-1β level. The release of IL-1β into the cell media was determined by MSD® Multi-Spot Assay System (V-Plex, IL-1B kit, […]-4). Following the manufacture's protocol and using the Alternate Protocol 3, Dilute-In-Plate protocol specifically, the level of IL-1β in the above collected supernatant plate was measured as electrochemiluminescent signals. Using MSD DISCOVERY WORKBENCH® analysis software, the signals were converted to the concentration of IL-1β in each well. The IC50 values of the compounds were calculated using the Graph Pad Prism software based on the […] concentration determined. The detection range of IL-1β using MSD kit was approximately […] (based on various lots of standards purchased from MSD).

Setting [3] is: U-937, PMA-differentiated U937 cells, LPS priming 5 h, nigericin, average of at least three experiments.
Setting [4] is: THP-1-ASC-GFP cells, LPS priming 4 h, nigericin, average of at least three experiments.

`Cc1oc(S(=N)(=O)NC(=O)Nc2c3c(cc4c2CCC4)CCC3)cc1CNC(C)C` (stereo not drawn) [Example 25, N-((1,2,3,5,6,7-hexahydro-s-indacen-4-yl)carbamoyl)-4-((isopropylamino)methyl)-5-methylfuran-2-sulfonimidamide]: the half-inhibitory concentration (IC50) in assay [1] (U-937, 5 h) is below 5 nM; in assay [2] (4 h), below 5 nM.
For the compound `CC(C)NCc1coc([S@@](=N)(=O)NC(=O)Nc2c3c(c(F)c4c2CCC4)CCC3)c1` (single isomer, unassigned) [Example 30], the IC50 in assay [1] (setting [3]) is above 500 nM; in assay [2] (setting [4]), 50 to 500 nM.
Turning to `Cn1nc(S(=O)(=O)NC(=O)Nc2c3c(c(F)c4c2CCC4)CCC3)cc1CNCC1(O)CCC1` [Example 59, N-((8-fluoro-1,2,3,5,6,7-hexahydro-s-indacen-4-yl)carbamoyl)-5-((((1-hydroxycyclobutyl)methyl)amino)methyl)-1-methyl-1H-pyrazole-3-sulfonamide], the IC50 in assay [1] (setting [3]) and in assay [2] (setting [4]) was 5 to 50 nM in each case.
On to `CC(C)n1nc(S(=N)(=O)NC(=O)Nc2c3c(cc4c2CCC4)CCC3)cc1CN1CC(O)C1` (stereo not drawn) [Example 19, N-((1,2,3,5,6,7-hexahydro-s-indacen-4-yl)carbamoyl)-5-((3-hydroxyazetidin-1-yl)methyl)-1-isopropyl-1H-pyrazole-3-sulfonimidamide], for which the IC50 in assay [1] (setting [3]) is 5 to 50 nM; in assay [2] (setting [4]) it was below 5 nM.
`Cc1oc(S(=O)(=O)NC(=O)Nc2c3c(c(F)c4c2CCC4)CCC3)cc1CN1CC[C@@H](O)C1` [Example 39, (R)-N-((8-fluoro-1,2,3,5,6,7-hexahydro-s-indacen-4-yl)carbamoyl)-4-((3-hydroxypyrrolidin-1-yl)methyl)-5-methylfuran-2-sulfonamide]: the IC50 lay within 50 to 500 nM in assay [1] (setting [3]) and 5 to 50 nM in assay [2] (setting [4]).
On the same counts, the results for `CNCc1coc([S@](=N)(=O)NC(=O)Nc2c3c(cc4c2CCC4)CCC3)c1` (single isomer, unassigned) [Example 75] are 50 to 500 nM and 50 to 500 nM.
With `CC(O)c1cc(S(=O)(=O)NC(=O)Nc2c3c(c(F)c4c2CCC4)CCC3)oc1CN1CCNCC1` (stereo not drawn) [Example 72, N-((8-fluoro-1,2,3,5,6,7-hexahydro-s-indacen-4-yl)carbamoyl)-4-(1-hydroxyethyl)-5-(piperazin-1-ylmethyl)furan-2-sulfonamide], the IC50 in assay [1] (setting [3]) and in assay [2] (setting [4]) was 5 to 50 nM each time.
Take `Cc1oc(S(=O)(=O)NC(=O)Nc2c3c(c(F)c4c2CCC4)CCC3)cc1CNCC1(O)CCC1` [Example 36, N-((8-fluoro-1,2,3,5,6,7-hexahydro-s-indacen-4-yl)carbamoyl)-4-((((1-hydroxycyclobutyl)methyl)amino)methyl)-5-methylfuran-2-sulfonamide]: the IC50 is 50 to 500 nM in assay [1] (setting [3]) and 5 to 50 nM in assay [2] (setting [4]).
On the same counts, the results for `Cc1oc(S(=N)(=O)NC(=O)Nc2c3c(cc4c2CCC4)CCC3)cc1CNC(C)C` (single isomer, unassigned) [Example 27, N-((1,2,3,5,6,7-hexahydro-s-indacen-4-yl)carbamoyl)-4-((isopropylamino)methyl)-5-methylfuran-2-sulfonimidamide] are below 5 nM and below 5 nM.
On the same counts, the results for `Cc1oc([S@@](=N)(=O)NC(=O)Nc2c3c(c(F)c4c2CCC4)CCC3)cc1CNC(C)C` (single isomer, unassigned) [Example 28] are 50 to 500 nM and 50 to 500 nM.
Take `Cc1oc(S(=N)(=O)NC(=O)Nc2c3c(c(F)c4c2CCC4)CCC3)cc1CN1CC(O)C1` (stereo not drawn) [Example 14, N-((8-fluoro-1,2,3,5,6,7-hexahydro-s-indacen-4-yl)carbamoyl)-4-((3-hydroxyazetidin-1-yl)methyl)-5-methylfuran-2-sulfonimidamide]: the IC50 in assay [1] (setting [3]) was 5 to 50 nM; in assay [2] (setting [4]), below 5 nM.
The matching figures for `CN(Cc1coc(S(=O)(=O)NC(=O)Nc2c3c(cc4c2CCC4)CCC3)c1)CC1(O)CCC1` [Example 33, N-((1,2,3,5,6,7-hexahydro-s-indacen-4-yl)carbamoyl)-4-((((1-hydroxycyclobutyl)methyl)(methyl)amino)methyl)furan-2-sulfonamide]: 5 to 50 nM and 5 to 50 nM.
As to `Cc1cc(S(=O)(=O)NC(=O)Nc2c3c(c(Cl)c4c2CCC4)CCC3)oc1CN(C)CC1(O)CCC1` [Example 57, N-((8-chloro-1,2,3,5,6,7-hexahydro-s-indacen-4-yl)carbamoyl)-5-((((1-hydroxycyclobutyl)methyl)(methyl)amino)methyl)-4-methylfuran-2-sulfonamide], the IC50 in assay [1] (setting [3]) and in assay [2] (setting [4]) was 5 to 50 nM in each case.
For `Cc1oc(S(=O)(=O)NC(=O)Nc2c3c(c(F)c4c2CCC4)CCC3)cc1CN1C[C@@H](O)[C@H](F)C1` [Example 43, N-((8-fluoro-1,2,3,5,6,7-hexahydro-s-indacen-4-yl)carbamoyl)-4-(((3R,4R)-3-fluoro-4-hydroxypyrrolidin-1-yl)methyl)-5-methylfuran-2-sulfonamide], the concentration for half-maximal inhibition (IC50) in assay [1] (setting [3]) was 5 to 50 nM; in assay [2] (setting [4]) it was below 5 nM.
The matching figures for `CC(C)(O)c1cc(S(=O)(=O)NC(=O)Nc2c3c(c(F)c4c2CCC4)CCC3)oc1COC1CNC1` [Example 71, 5-((azetidin-3-yloxy)methyl)-N-((8-fluoro-1,2,3,5,6,7-hexahydro-s-indacen-4-yl)carbamoyl)-4-(2-hydroxypropan-2-yl)furan-2-sulfonamide]: 5 to 50 nM and below 5 nM.

In general, IC50 refers to the midpoint of a concentration-inhibition curve.
